Test results: ChEMBL document CHEMBL1201862, “PubChem BioAssay data set” (2004)
Active and inactive are the calls of the source.

How the values were obtained:
[1] = molecular target: Genome polyprotein (dengue virus type 2, UniProt P29990); test: Dengue-2 NS5 methyltransferase inhibitors, primary screen, biochemical, confirmation dose response (AID 588689); assay type: functional
[2] = NIH-3T3 fibroblast cytotoxicity, dose response, cytotoxicity control, cell-based, fluorescence, Alamar Blue, secondary assay (AID 2327); assay type: functional;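 further: NIH-3T3 mouse fibroblasts cultured with fluconazole at 8 µg/mL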
[3] = molecular target: FAD-linked sulfhydryl oxidase ALR (Homo sapiens, UniProt P55789); test: inhibitors of human ALR sulfhydryl oxidase, dose response, biochemical, H2O2 detection, luminescence, cherry-pick (AID 493248)
[4] = C. albicans growth with fluconazole, confirmation, fluorescence, retest (AID 2467); assay type: functional, cell-based
[5] = tested on: INS1; test: beta cell apoptosis inhibitors, cytokine rescue, dose response, luminescence, retest (AID 449756); assay type: functional, cell-based; conditions: Rattus norvegicus;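 further: cell death triggered by IL-1 beta plus TNF-alpha plus IFN-gamma mixture; protective hits raise ATP signal compared with cytokine alone wells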
[6] = molecular target: T1, Serine/threonine-protein phosphatase (Candida dubliniensis (strain CD36 / CBS 7987 / NCPF 3949 / NRRLY-17841) (Yeast), UniProt B9W6M3); test: calcineurin pathway inhibitors in yeast reporter, dose response, S. cerevisiae, CDRE-lacZ, luminescence, secondary (AID 2388); assay type: functional, cell-based;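 further: yeast reporter cells carrying a calcineurin-responsive lacZ construct stimulated with calcium chloride; luminescent beta-galactosidase reporter signal in whole cells rather than isolated phosphatase activity; potency for inhibition where a drop in reporter signal means calcineurin blockade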
T1 sequence (B9W6M3 whole entry): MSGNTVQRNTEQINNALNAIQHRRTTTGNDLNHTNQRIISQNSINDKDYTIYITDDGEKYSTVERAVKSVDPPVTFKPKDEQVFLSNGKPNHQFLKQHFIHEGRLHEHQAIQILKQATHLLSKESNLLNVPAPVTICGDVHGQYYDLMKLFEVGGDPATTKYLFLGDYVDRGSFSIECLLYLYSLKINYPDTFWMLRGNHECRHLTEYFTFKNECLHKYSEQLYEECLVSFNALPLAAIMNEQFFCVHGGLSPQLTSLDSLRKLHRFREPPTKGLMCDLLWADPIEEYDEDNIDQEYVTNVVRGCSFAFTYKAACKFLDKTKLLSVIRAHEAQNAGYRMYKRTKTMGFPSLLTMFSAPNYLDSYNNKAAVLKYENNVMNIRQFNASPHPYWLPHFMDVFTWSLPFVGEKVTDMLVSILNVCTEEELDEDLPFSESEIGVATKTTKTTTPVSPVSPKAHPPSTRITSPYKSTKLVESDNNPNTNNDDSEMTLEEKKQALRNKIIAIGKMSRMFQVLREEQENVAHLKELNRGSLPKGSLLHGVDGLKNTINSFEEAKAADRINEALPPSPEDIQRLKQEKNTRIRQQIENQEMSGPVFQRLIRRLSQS

[7] = molecular target: ATP-dependent molecular chaperone HSP82 (Candida albicans (strain WO-1) (Yeast), UniProt C4YTQ8); test: loss of DOC-induced GRE-beta-galactosidase reporter signal, dose response, Hsp90 inhibitor project, S. cerevisiae, luminescence (AID 2400); assay type: functional, cell-based;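 further: beta-galactosidase luminescence from glucocorticoid response element reporter as proxy for Hsp90 function; inhibitor potency where signal loss means Hsp90 inhibition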
[8] = molecular target: Nonstructural protein 1 (Influenza A virus, UniProt Q194T2); assay type: functional, Influenza A virus (A/California/07/2009(H1N1))
[9] = molecular target: Cytochrome P450 3A4 (Homo sapiens, UniProt P08684);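 further: CYP3A4 tested as one member of a cytochrome P450 panel screen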
[10] = molecular target: Cytochrome P450 2C19 (Homo sapiens, UniProt P33261); test: Cytochrome panel assay with activity outcomes. Panel member name: p450-cyp2c19 Compounds with AC50 equal or less than 10 uM are considered active; assay type: functional; conditions: read-out: AC50
[11] = molecular target: Cytochrome P450 2D6 (Homo sapiens, UniProt P10635);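 further: CYP2D6 member of a cytochrome P450 panel assay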
[12] = molecular target: T2, Endoribonuclease toxin MazF (Escherichia coli K-12, UniProt P0AE70); test: fluorescent RNA oligo signal without MazF, dose response, counter-screen for MazEF activator project, biochemical, fluorescence, single-stranded RNase substrate (AID 588502); assay type: functional
T2 sequence (P0AE70 whole entry): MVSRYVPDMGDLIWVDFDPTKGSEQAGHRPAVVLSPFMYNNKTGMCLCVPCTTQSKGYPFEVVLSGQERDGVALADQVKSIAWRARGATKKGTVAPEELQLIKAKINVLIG

[13] = molecular target: T2, Endoribonuclease toxin MazF; test: MazF toxin RNase activators, dose response, biochemical, fluorescence, single-stranded RNA substrate, uHTS hits (AID 588481); assay type: functional
[14] = molecular target: T3, Sentrin-specific protease 6 (Homo sapiens, UniProt Q9GZR1); assay type: functional;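 further: Luminescence-based dose-response confirmatory assay of SENP6 inhibition, following up an ultra-high-throughput screen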
T3 sequence (Q9GZR1 whole entry): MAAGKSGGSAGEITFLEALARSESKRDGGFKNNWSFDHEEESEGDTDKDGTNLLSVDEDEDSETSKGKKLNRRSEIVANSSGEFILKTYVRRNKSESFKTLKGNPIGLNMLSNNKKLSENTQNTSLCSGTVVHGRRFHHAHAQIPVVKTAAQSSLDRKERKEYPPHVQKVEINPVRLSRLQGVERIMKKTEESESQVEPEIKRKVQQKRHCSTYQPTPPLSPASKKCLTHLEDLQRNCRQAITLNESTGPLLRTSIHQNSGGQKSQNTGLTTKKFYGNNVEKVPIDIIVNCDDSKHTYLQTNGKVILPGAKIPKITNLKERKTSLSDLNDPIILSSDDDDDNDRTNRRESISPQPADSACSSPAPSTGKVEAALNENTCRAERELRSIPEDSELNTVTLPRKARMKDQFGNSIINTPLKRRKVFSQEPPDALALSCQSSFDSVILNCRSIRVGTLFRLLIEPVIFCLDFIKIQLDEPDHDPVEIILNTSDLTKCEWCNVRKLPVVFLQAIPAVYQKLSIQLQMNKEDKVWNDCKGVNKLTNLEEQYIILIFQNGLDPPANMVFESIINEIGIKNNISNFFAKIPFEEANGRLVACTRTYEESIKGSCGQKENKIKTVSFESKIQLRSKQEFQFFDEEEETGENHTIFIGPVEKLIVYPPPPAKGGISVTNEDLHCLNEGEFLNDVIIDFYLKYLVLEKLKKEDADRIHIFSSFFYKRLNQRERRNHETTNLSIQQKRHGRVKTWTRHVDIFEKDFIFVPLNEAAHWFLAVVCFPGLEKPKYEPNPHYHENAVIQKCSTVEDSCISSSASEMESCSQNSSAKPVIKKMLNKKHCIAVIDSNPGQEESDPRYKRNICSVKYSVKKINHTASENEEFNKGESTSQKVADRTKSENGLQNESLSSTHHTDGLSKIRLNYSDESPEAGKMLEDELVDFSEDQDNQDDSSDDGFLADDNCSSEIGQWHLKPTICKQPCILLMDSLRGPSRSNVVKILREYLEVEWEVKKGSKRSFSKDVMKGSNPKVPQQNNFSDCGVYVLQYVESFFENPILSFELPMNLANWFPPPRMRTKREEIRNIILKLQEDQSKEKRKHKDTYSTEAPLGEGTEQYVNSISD

[15] = molecular target: T4, Caspase-3 (Homo sapiens, UniProt P42574); assay type: functional;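 further: Dose-response selectivity test against caspase-3 for candidate inhibitors of sentrin-specific proteases (SENPs)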
T4 sequence (P42574 whole entry): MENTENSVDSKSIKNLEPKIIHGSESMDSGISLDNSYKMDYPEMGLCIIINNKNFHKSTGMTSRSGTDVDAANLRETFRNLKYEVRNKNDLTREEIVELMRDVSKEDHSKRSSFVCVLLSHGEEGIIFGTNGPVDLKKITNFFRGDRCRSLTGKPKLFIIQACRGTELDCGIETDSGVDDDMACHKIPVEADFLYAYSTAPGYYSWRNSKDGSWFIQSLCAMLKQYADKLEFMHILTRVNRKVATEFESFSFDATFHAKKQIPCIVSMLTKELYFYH

[16] = molecular target: T5, Oxysterols receptor LXR-beta (Homo sapiens, UniProt P55055); assay type: functional, cell-based;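 further: agonist activity at LXR measured by a cell-based luminescence readout across a dose range, run as a counterscreen for daf-12 agonists; HEK293 cells with Gal4-LXR fusion and GAL4-driven luciferase reporter; potency for activation of Gal4-LXR reporter so compounds are agonists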
T5 sequence (P55055 whole entry): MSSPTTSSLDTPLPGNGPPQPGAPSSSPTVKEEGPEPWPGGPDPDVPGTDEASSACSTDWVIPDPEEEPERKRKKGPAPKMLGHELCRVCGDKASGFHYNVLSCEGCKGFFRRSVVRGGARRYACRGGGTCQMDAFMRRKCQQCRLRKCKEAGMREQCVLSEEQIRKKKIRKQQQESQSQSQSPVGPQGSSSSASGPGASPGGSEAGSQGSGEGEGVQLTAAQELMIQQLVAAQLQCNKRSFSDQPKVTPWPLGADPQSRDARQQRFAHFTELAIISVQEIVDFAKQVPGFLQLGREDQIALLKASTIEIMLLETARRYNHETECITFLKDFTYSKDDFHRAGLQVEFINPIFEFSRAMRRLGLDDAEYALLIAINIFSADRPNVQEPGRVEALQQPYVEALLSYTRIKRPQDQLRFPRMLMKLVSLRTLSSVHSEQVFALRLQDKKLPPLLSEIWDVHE

[17] = molecular target: T6, Sentrin-specific protease 7 (Homo sapiens, UniProt Q9BQF6); assay type: functional;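 further: Luminescence-based dose-response confirmation of ultra-high-throughput screening hits, measuring inhibition of SENP7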
T6 sequence (Q9BQF6 whole entry): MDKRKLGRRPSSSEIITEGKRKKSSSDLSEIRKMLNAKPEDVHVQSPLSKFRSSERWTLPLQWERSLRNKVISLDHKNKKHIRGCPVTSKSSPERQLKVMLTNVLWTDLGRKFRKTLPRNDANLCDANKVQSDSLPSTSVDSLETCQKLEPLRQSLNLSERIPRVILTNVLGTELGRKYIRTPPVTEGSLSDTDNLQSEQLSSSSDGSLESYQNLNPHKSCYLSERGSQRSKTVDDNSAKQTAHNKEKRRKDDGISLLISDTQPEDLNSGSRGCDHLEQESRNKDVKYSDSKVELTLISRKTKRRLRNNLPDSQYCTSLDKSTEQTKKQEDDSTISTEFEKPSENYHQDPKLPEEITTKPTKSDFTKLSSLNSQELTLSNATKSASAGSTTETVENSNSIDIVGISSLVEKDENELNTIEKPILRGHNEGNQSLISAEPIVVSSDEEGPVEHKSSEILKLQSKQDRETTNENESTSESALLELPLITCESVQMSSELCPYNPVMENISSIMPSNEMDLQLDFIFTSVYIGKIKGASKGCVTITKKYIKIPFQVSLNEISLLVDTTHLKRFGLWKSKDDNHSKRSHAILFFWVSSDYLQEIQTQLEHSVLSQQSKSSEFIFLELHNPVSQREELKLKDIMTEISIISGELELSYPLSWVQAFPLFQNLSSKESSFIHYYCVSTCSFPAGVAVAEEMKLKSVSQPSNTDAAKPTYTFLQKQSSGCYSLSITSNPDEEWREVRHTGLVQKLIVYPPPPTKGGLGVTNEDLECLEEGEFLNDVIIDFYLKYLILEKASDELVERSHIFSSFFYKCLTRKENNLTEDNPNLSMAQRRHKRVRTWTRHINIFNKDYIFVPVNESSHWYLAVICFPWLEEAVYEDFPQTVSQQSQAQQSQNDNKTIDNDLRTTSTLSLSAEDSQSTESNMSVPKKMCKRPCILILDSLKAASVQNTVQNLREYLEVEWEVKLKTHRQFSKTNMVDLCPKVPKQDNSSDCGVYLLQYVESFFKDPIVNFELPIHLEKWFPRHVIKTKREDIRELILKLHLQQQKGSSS

[18] = molecular target: T7, Sentrin-specific protease 8 (Homo sapiens, UniProt Q96LD8); assay type: functional;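 further: luminescence read-out of SENP8 inhibition, dose-response confirmation following an ultra-high-throughput screen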
T7 sequence (Q96LD8 whole entry): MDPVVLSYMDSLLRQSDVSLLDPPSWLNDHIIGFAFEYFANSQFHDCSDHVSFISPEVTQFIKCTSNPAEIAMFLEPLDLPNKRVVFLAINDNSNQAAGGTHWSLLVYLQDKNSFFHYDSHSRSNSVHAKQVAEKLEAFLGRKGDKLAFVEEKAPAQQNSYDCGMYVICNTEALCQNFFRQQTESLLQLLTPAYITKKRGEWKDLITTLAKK

[19] = microbe, parasite or virus in culture; assay type: functional; conditions: Mycobacterium tuberculosis

Chain of ATP-dependent molecular chaperone HSP82 (C4YTQ8 whole entry): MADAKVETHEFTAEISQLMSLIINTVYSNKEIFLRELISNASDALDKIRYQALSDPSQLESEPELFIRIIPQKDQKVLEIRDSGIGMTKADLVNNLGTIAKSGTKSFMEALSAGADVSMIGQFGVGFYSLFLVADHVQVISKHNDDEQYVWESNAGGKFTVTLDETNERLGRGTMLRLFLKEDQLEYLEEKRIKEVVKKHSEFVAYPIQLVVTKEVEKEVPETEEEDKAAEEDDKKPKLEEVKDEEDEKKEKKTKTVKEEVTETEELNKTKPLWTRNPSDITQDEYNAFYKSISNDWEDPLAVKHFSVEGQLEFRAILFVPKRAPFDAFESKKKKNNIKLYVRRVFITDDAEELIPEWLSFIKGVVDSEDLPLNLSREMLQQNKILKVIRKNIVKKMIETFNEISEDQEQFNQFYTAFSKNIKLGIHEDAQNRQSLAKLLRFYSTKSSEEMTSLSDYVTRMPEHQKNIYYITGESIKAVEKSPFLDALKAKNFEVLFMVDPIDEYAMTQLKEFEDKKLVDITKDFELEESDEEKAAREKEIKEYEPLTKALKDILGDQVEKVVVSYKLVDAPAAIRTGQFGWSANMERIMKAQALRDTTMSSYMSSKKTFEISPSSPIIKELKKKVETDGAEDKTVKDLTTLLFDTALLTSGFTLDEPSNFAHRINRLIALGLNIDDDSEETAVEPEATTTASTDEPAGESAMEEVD
Chain of Cytochrome P450 3A4 (P08684 whole entry): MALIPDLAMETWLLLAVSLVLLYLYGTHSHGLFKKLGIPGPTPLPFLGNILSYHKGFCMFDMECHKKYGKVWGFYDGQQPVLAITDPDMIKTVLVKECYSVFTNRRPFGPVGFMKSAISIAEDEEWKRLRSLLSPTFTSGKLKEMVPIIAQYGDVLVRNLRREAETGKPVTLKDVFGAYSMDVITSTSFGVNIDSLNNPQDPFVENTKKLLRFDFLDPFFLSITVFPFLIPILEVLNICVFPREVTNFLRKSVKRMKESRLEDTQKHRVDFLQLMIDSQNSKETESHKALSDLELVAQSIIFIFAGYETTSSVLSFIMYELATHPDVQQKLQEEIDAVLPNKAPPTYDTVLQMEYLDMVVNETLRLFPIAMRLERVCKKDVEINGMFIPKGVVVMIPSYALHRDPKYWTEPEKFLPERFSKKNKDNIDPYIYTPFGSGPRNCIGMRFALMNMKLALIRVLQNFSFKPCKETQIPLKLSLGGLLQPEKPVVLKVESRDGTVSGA
Chain of FAD-linked sulfhydryl oxidase ALR (P55789 whole entry): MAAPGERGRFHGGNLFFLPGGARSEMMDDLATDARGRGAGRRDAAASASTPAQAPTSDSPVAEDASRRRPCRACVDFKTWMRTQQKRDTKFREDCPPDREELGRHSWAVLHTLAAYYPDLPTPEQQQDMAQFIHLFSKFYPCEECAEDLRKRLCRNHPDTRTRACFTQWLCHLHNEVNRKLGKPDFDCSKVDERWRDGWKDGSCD
Chain of Cytochrome P450 2D6 (P10635 whole entry): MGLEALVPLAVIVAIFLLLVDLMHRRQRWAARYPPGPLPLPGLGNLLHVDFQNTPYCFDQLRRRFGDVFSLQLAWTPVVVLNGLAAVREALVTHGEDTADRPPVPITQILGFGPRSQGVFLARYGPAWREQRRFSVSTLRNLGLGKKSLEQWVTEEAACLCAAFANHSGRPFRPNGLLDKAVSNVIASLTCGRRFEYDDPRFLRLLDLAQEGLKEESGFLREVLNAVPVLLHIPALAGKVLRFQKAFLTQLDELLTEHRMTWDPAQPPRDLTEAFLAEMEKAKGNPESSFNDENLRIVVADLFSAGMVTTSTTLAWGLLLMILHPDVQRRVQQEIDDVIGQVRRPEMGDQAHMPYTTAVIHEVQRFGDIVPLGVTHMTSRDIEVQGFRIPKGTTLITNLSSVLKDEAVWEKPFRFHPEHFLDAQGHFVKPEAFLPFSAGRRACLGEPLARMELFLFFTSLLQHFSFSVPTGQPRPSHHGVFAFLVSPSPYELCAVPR
Chain of Nonstructural protein 1 (Q194T2 whole entry): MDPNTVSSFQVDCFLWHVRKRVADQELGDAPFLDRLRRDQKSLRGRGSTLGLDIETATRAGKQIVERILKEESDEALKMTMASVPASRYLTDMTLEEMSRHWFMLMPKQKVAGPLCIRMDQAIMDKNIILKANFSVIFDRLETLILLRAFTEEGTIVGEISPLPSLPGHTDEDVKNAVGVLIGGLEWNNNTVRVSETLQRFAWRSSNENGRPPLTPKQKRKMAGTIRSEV
Chain of Genome polyprotein (P29990 2492-3391 limits assumed): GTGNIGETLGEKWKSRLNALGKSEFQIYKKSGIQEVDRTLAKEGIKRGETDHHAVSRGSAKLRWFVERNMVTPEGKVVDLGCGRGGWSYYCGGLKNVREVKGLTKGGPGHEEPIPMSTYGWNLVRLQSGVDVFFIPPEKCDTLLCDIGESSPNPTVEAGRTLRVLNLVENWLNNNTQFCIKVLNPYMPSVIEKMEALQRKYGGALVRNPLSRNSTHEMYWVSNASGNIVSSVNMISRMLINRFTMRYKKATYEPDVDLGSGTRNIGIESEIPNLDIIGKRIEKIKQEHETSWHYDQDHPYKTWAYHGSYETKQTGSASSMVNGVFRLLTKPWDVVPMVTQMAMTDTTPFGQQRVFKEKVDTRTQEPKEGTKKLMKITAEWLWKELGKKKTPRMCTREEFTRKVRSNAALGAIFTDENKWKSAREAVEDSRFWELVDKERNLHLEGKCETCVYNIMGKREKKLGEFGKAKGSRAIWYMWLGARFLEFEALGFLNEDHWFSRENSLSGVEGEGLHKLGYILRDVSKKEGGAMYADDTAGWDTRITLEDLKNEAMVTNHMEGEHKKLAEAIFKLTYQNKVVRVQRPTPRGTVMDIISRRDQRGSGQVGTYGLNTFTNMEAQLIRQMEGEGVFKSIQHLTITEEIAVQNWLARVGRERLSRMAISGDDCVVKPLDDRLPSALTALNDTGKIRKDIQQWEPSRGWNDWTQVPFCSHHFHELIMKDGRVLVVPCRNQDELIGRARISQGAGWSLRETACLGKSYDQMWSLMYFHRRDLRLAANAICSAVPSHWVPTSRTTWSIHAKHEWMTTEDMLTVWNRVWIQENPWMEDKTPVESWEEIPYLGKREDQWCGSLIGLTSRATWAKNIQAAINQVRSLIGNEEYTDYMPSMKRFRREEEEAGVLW
Chain of Cytochrome P450 2C19 (P33261 whole entry): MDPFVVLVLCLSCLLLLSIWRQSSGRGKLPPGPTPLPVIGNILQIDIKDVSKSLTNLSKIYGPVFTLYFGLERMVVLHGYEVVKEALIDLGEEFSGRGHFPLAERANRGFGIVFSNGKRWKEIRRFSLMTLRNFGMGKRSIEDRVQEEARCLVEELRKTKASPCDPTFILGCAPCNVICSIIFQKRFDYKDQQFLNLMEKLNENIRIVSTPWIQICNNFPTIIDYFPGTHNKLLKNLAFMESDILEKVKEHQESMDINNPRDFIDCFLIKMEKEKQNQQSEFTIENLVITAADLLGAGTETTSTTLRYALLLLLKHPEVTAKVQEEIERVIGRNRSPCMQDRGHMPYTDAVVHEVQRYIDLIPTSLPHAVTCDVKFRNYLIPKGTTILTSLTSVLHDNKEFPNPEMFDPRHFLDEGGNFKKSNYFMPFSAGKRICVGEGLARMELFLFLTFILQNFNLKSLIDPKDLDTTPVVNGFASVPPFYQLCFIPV

With `C=CCOc1ccc(/C=C2/C(=O)ON=C2C)cc1OCC` the IC50 [1] was > 100 µM (active).

In the case of `Oc1ccc(N=Nc2nccs2)c(O)c1`, the EC50 [2] was 16 µM (inconclusive), the AC50 [3] was 4.55 µM (active) and the EC50 [4] was 1.19 µM (active). For the same compound, the AC50 [5] was 2.78 µM (active), the EC50 [6] was > 180 µM (inactive) and the EC50 [7] was 21.8 µM (active). The IC50 [8] was 11.4 µM (active).

For `O=C(Nc1cccc(F)c1)N1CCC2(CC1)CCN(C(=O)c1ccco1)CC2`, the AC50 [9] was “inconclusive” and the AC50 [10] was 10 µM (inconclusive).

For `O=C(c1cc(C(F)(F)F)cc(C(F)(F)F)c1)N1CCC2(CCN(Cc3nccs3)CC2)CC1`, the AC50 [11] was 10 µM (inconclusive) and the AC50 [9] was “inconclusive”.

With `COc1cccc(C2=CC(c3ccc(N(C)C)cc3)n3nnnc3N2)c1` (stereo unspecified) the EC50 [12] was > 99 µM (inactive) and the EC50 [13] was > 99 µM (inactive).

In the case of `CCOc1ccc2nc(NC(=O)Nc3cccs3)sc2c1`, the IC50 [14] was 19.2 µM (active), the IC50 [15] was 29.9 µM (active) and the EC50 [16] was > 67.5 µM (inactive). The IC50 [17] was 8.66 µM (active) and the IC50 [18] was 24.1 µM (active).

For `CSC1=N/C(=C\c2ccc(C)s2)C(=O)S1`, the EC50 [12] was 72 µM (inactive) and the EC50 [13] was 89.7 µM (inactive).

In the case of `O=[N+]([O-])c1nn(-c2ccc(Cl)cc2)[n+]([O-])c1NCc1cccnc1`, the CC50 [19] was > 40 µM (active), the EC50 [2] was > 160 µM (inactive) and the EC50 [4] was 1.11 µM (active). The EC50 [6] was > 180 µM (inactive) and the EC50 [7] was > 150 µM (inactive).
